Among the data in PubChem BioAssay (NCI) are GI50 and TGI values, retold here.

Among the test systems are RXF 393 renal; HOP-92 NSCLC; COLO 205 colon; NCI-H23 lung; U251 CNS; SK-MEL-28 melanoma; EKVX NSCLC; CAKI-1 renal.
Common to all, as to test: NCI tumour cell line growth inhibition, 48 h

Values joined by “and” are separate entries in the source; they are usually repeats but may differ in a detail not shown here. Equal values may be shown once.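 Briefly, cells in 96-well plates were exposed to five compound concentrations for 48 h, and endpoints were estimated by linear interpolation. GI50 marks 50% less growth. The concentration for full growth arrest is given as TGI.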

`COc1cc(C(=O)c2cnc(-c3cccc4[nH]ccc34)[nH]2)cc(OC)c1OC`: the GI50 was 0.113 µM with RXF 393 renal; 1.5 µM in the test with HOP-92 NSCLC; 0.0603 µM and < 0.01 µM in the test on U251 CNS; under 0.01 µM in the test with SK-MEL-28 melanoma; under 0.01 µM in the test on CAKI-1 renal. Besides, the TGI in the test with HOP-92 NSCLC is 48.1 µM; with COLO 205 colon it was under 0.01 µM; in the test on NCI-H23 lung, over 100 µM; in the test with U251 CNS, 40 µM; with SK-MEL-28 melanoma, over 100 µM; in the test with EKVX NSCLC, over 100 µM. The same compound showed a TGI with CAKI-1 renal of over 100 µM.

For `CCOC(=O)C(C#N)C1=CC(=O)C(=O)c2ccc(O)cc21` (stereo unspecified), the TGI in the test on RXF 393 renal was over 100 µM; in the test with COLO 205 colon, over 100 µM; in the test with NCI-H23 lung, 58 µM; in the test on U251 CNS, over 100 µM; in the test with SK-MEL-28 melanoma, over 100 µM; in the test on EKVX NSCLC, over 100 µM. The same compound returned a TGI with CAKI-1 renal of over 100 µM.

Regarding `CC1NC(=O)C2=C1C(=O)NC(=O)C2` (stereo unspecified), the GI50 in the test with RXF 393 renal, with HOP-92 NSCLC, in the test on NCI-H23 lung, in the test on EKVX NSCLC and in the test on CAKI-1 renal was over 100 µM each time. The TGI in the test on RXF 393 renal, with HOP-92 NSCLC, in the test with NCI-H23 lung, in the test with EKVX NSCLC and with CAKI-1 renal was over 100 µM in each case.

As to `O=C(O)C1[O][Sb][O]C(C(=O)O)C1O` (stereo unspecified), the GI50 in the test on RXF 393 renal, in the test with HOP-92 NSCLC, with NCI-H23 lung, with U251 CNS, with SK-MEL-28 melanoma and in the test with EKVX NSCLC was over 100 µM throughout. The GI50 in the test on CAKI-1 renal was over 100 µM. Moreover, the TGI in the test on RXF 393 renal, with HOP-92 NSCLC, in the test on NCI-H23 lung, with U251 CNS, with SK-MEL-28 melanoma and in the test with EKVX NSCLC was over 100 µM throughout. The compound further yielded a TGI in the test on CAKI-1 renal of over 100 µM.

`C/C=C1/CC(C)C(C)(O)C(=O)OCC2C(O)CN3CCC(OC1=O)C23` (stereo unspecified): the TGI with RXF 393 renal, in the test with HOP-92 NSCLC, with COLO 205 colon, in the test with NCI-H23 lung, in the test with U251 CNS and in the test with EKVX NSCLC was over 100 µM throughout. Further, the TGI with CAKI-1 renal was over 100 µM.

As for `CC(=O)C1=C(O)C=C2Oc3c(C(=O)/C=C/c4cc(Cl)cc(Cl)c4)c(O)c(C)c(O)c3[C@]2(C)C1=O`, the GI50 was 0.541 µM in the test with RXF 393 renal; 0.408 µM in the test with COLO 205 colon; 0.5 µM with NCI-H23 lung; 0.41 µM in the test with U251 CNS; 0.637 µM with SK-MEL-28 melanoma; 0.444 µM in the test on EKVX NSCLC. In addition, the GI50 in the test with CAKI-1 renal was 0.502 µM. Moreover, the TGI came out at 1.62 µM with RXF 393 renal; 0.988 µM with COLO 205 colon; 2.05 µM with NCI-H23 lung; 1.06 µM in the test with U251 CNS; 2.76 µM with SK-MEL-28 melanoma; 2.27 µM in the test on EKVX NSCLC. Also, the TGI in the test with CAKI-1 renal is 4.19 µM.

With `CCNC(=O)Oc1ccc(/C(=C(/C)Cc2ccc(OC)cc2)c2ccc(OCCN(CC)CC)cc2)cc1`, the GI50 with RXF 393 renal is 1.9 µM; in the test with COLO 205 colon, 1.94 µM; in the test on NCI-H23 lung it was 2.09 µM; with U251 CNS it was 1.73 µM; with SK-MEL-28 melanoma, 1.76 µM; in the test with EKVX NSCLC it was 1.7 µM. For the same compound, the GI50 in the test on CAKI-1 renal is 1.64 µM. The TGI in the test with RXF 393 renal came to 3.62 µM; in the test on COLO 205 colon, 3.82 µM; with NCI-H23 lung, 5.35 µM; in the test on U251 CNS, 3.2 µM; in the test with SK-MEL-28 melanoma it was 3.53 µM; in the test with EKVX NSCLC it was 5.03 µM. In the test on CAKI-1 renal, this compound yielded a TGI of 3.84 µM.

Take `CCCCCCCCCC[C@H](O)[C@H](O)CC[C@@H](O)[C@H]1CC[C@@H]([C@H]2CC[C@H](CCCCCCC[C@@H](O)CC3=C[C@H](C)OC3=O)O2)O1`: the GI50 in the test on RXF 393 renal was 42.5 µM; in the test on COLO 205 colon, 18 µM; in the test on NCI-H23 lung, 0.951 µM; in the test with SK-MEL-28 melanoma, 47 µM; in the test on EKVX NSCLC, 18.5 µM; in the test with CAKI-1 renal, 32.4 µM. Also, the TGI in the test with RXF 393 renal was 83 µM; in the test on COLO 205 colon, 4.42 µM and 35.7 µM; in the test on U251 CNS, over 100 µM; with SK-MEL-28 melanoma it was over 100 µM; in the test on CAKI-1 renal, 9.67 µM and 89 µM.

Turning to `CCN(CC)CCCC(C)N/C(=C1\C(=O)NC(=O)\C1=C(/NC(C)CCCN(CC)CC)c1cccc(OC)c1)c1cccc(OC)c1` (stereo unspecified), the GI50 with RXF 393 renal is 0.72 µM; in the test on HOP-92 NSCLC, 0.642 µM; in the test on COLO 205 colon it was 0.728 µM; with NCI-H23 lung it was 1.19 µM; in the test with U251 CNS, 0.844 µM; in the test on SK-MEL-28 melanoma it was 0.913 µM. In addition, the GI50 in the test with CAKI-1 renal was 1.03 µM. For the same compound, the TGI with RXF 393 renal was 1.58 µM; in the test on HOP-92 NSCLC, 1.76 µM; with COLO 205 colon it was 1.65 µM; with NCI-H23 lung, 3.15 µM; with U251 CNS, 1.89 µM; with SK-MEL-28 melanoma, 1.67 µM. In the test with CAKI-1 renal, this compound registered a TGI of 2.52 µM.

Turning to `Cc1cc2c(-c3nc4ccccn4c3N)c(O)c(O)cc2c(O)c1-c1c(C)cc2c(-c3nc4ccccn4c3N)c(O)c(O)cc2c1O`, the GI50 was 0.682 µM with RXF 393 renal; 0.65 µM with HOP-92 NSCLC; 1.07 µM in the test on COLO 205 colon; 0.543 µM in the test on NCI-H23 lung; 0.273 µM in the test on U251 CNS; 1.16 µM in the test with SK-MEL-28 melanoma. In addition, the GI50 in the test with EKVX NSCLC is 0.965 µM. Also, the TGI in the test on RXF 393 renal is 18 µM; with HOP-92 NSCLC, 2.29 µM; in the test with COLO 205 colon, over 25 µM; in the test on NCI-H23 lung, over 25 µM; in the test on U251 CNS, over 25 µM; in the test with SK-MEL-28 melanoma it was over 25 µM. This compound also yielded a TGI in the test on EKVX NSCLC of over 25 µM.

Consider `Nc1nc(/C=C\c2ccccc2)nc(N2CCN(c3ccccc3)CC2)n1`, for which the GI50 in the test with RXF 393 renal was 21.6 µM; in the test with HOP-92 NSCLC, 21 µM; in the test on COLO 205 colon, 16.4 µM; in the test on U251 CNS, 24.3 µM; with SK-MEL-28 melanoma, 30.9 µM; with EKVX NSCLC, 59.1 µM. Moreover, the GI50 in the test with CAKI-1 renal was 15.6 µM. Besides, the TGI is 49.2 µM with RXF 393 renal; 93.3 µM with HOP-92 NSCLC; 35.8 µM in the test with COLO 205 colon; 69.2 µM with U251 CNS; 79.6 µM in the test with SK-MEL-28 melanoma; over 100 µM in the test with EKVX NSCLC. In the test with CAKI-1 renal, this compound displayed a TGI of 43.6 µM.
